Experimental data published in patent US20260297081A1, “COMPOUNDS AND METHODS OF TREATING CANCERS” (Cullgen Inc., priority 2023, published 2026).

What was measured:
Type in all cases: cell-based
[1] = test system: CCND1, CCND3, CDK4 in T47D cells; assay: Immunoblot of CCND1, CCND3, CDK4 protein degradation in T47D cells (FIG. 2A, 48 hours); details: negative control vs CPD-10
Description: Specific exemplary heterobifunctional compounds were characterized in Calu-1, MCF7, T47D and other cells. Cells that express cyclin D1-3 and CDK4/6 proteins were treated with heterobifunctional compounds disclosed herein at indicated concentrations. MCF7 cells were deprived of serum for 2 hours followed by the treatment with heterobifunctional compounds. Cells were collected, lysed and subject to immunoblotting using an antibody specific to CCND1, CCND2, CCND3, CDK4, or FoxM1, cyclin A2, or phosphorylated Rb (S807/811) proteins. Tubulin or GAPDH was used as the loading control. DMSO treatment was used as the negative control.
To verify that heterobifunctional compound-mediated degradation is dependent on the binding to CDK4-cyclin D complex, a negative control compound, CPD-143, which is derived from active heterobifunctional compound CPD-10 was designed. CPD-143 bears the same DDB1 ligand and linker as CPD-10 but with a modified warhead to impair the binding of the control compound to CDK4.

[2] = test system: Calu-1 cells; assay: Anti-proliferation (viability) of NSCLC Calu-1 cells, 3 days (Table 7, FIG. 2B)
How it was run: (§1)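 Viability after a 10-point dilution series of heterobifunctional compounds, with exposure of 6 days for ER+ breast T47D cells and 3 days for NSCLC Calu-1 cells.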

[3] = test system: T47D cells; assay: Anti-proliferation (viability) of ER+ breast cancer T47D cells, 6 days (Table 7, FIG. 2B)
How it was run: as §1

[4] = test system: MCF7 cells; assay: Anti-proliferation (viability) of MCF7 cells (Table 7, FIG. 2B)
[5] = test system: HCC1428 cells; assay: Flow cytometric analysis of Annexin V/7-AAD stained HCC1428 cells (apoptosis), 6 days (FIG. 3B); details: HCC1428; 400 nM; 6 days
Description: (§2) T47D cells were treated with DMSO, palbociclib, heterobifunctional compound CPD-10 for 6 days at doses approximating IC50and IC90 concentrations as indicated (FIG. 3A). HCC1428 cells were treated with DMSO, palbociclib, heterobifunctional compound CPD-10, or its negative control compound CPD-143 for 6 days at doses approximating IC90 concentrations as indicated (FIG. 3B). Cells were harvested by trypsinization, staining was carried out using the Annexin V Apoptosis Detection Kit. The percentages of early apoptotic (Annexin V^+7-AAD^−, lower right quadrant), late apoptotic (Annexin V^+7-AAD^+, upper right quadrant) and necrotic cells (Annexin V^−7-AAD^+, upper left quadrant) are indicated on dot plots.

[6] = test system: Calu-1 cells; assay: Cell viability / anti-proliferation assay, Calu-1 (Table 7, FIG. 2B); details: 10-point serial dilution, 3-6 days
Description: (§3) NSCLC Calu-1 or ER+ breast cancer T47D cells were treated with selected heterobifunctional compounds following a 10-point serial dilution for 3 or 6 days, respectively.
(§4) Cells were treated with heterobifunctional compounds following a 10-point serial dilution for 3-6 days. In Calu-1 cells, A: anti-proliferation activity IC50≤10 nM; B: anti-proliferation activity IC50<50 nM, and ≥10 nM; C: anti-proliferation activity IC50≥50 nM. In T47D cells, A: anti-proliferation activity IC50≤50 nM; B: anti-proliferation activity IC50≤100 nM, and ≥50 nM; C: anti-proliferation activity IC50≥100 nM; -, data not available.
(§5) Calu-1, MCF7 or T47D cells were seeded in 96-well plates and treated with CPD-10, or CPD-143 following a 10-point serial dilution for 3-6 days (FIG. 2B).
(§6) Calu-1, T47D, MCF7, HCC1428 and other cells were cultured at 37° C. with 5% CO2 in RPMI 1640 or DMEM medium supplemented with 10% fetal bovine serum. […]
(§7) Cells were seeded at a density of 2,000-5,000 cells per well in 96-well assay plates and treated with test compounds following a 10-point serial dilution for 3-6 days. Cell viability was determined using the CellTiter-Lumi assay kit according to the manufacturer's instructions. The dose-response curves were determined and IC50 values were calculated using the GraphPad Prism software following a nonlinear regression (least squares fit) method. […]

[7] = test system: T47D cells; assay: Cell viability / anti-proliferation assay, T47D (Table 7, FIG. 2B); details: 10-point serial dilution, 3-6 days
Description: as §3, §4, §5, §6, §7

[8] = test system: MCF7 cells; assay: Cell viability / anti-proliferation assay, MCF7 (Table 7, FIG. 2B); details: 10-point serial dilution, 3-6 days
Description: as §3, §4, §5, §6, §7

[9] = test system: CCND; assay: CCND degradation in T47D cells with CPD-10 and negative control CPD-143 (FIG. 2A); details: 48 hours, dose range
Description: (§8) T47D cells were treated with a dose range of heterobifunctional compound CPD-10, and its negative control compound CPD-143 for 48 hours (FIG. 2A).
(§9) Cultured cells were washed with cold PBS once and lysed in cold RIPA buffer supplemented with protease inhibitors and phosphatase inhibitors (Beyotime Biotechnology). The solutions were then incubated at 4 ? for 30 min with gentle agitation to fully lysed cells. Cell lysates were centrifuged at 13,000 rpm for 10 min at 4 ? and pellets were discarded. Total protein concentrations in the lysates were determined following BCA assays (Beyotime Biotechnology). Cell lysates were mixed with Laemmli loading buffer and heated at 99° C. for 5 min. Proteins were resolved on SDS-PAGE and visualized using Western ECL Substrate kits on a ChemiDoc MP Imaging system (Bio-Rad). Protein bands were quantitated using the Image Lab software provided by Bio-Rad.

[10] = test system: T47D cells; assay: Downstream inhibition in T47D cells with CPD-10 and negative control CPD-143 (FIG. 2A); details: 48 hours, dose range
Description: as §8, §9

[11] = test system: HCC1428 cells; assay: Annexin V apoptosis flow cytometry, HCC1428 (FIG. 3B); details: HCC1428, dose approximating IC90, 6 days
Description: as §2, with “IC50 and” for “IC50and”, “Kit.” for “Kit. The percentages of early apoptotic (Annexin V^+7-AAD^−, lower right quadrant), late apoptotic (Annexin V^+7-AAD^+, upper right quadrant) and necrotic cells (Annexin V^−7-AAD^+, upper left quadrant) are indicated on dot plots.”
Assays were performed on the CytoFLEX Cytometer (Beckman Coulter), and data were analyzed using CytExpert software. For cell death and apoptosis analysis, cells were harvested by trypsinization, staining was carried out using the Annexin V Apoptosis Detection Kit (BD Biosciences). Briefly, cells were resuspended in 1× binding buffer and incubated with fluorochrome-conjugated Annexin V and 7-AAD for 15 min in darkness at room temperature.

[12] = biological target: CDK4 (Homo sapiens, UniProt P11802+Q16531); assay: CDK4 percentage degradation in Calu-1 cells (Table 6); set-up: Cells that express cyclin D1-3 and CDK4/6 proteins were treated with heterobifunctional compounds; endogenous in cells; host or cells: Calu-1; details: 16 hours
Sequence of CDK4 (P11802 2-303 limits assumed): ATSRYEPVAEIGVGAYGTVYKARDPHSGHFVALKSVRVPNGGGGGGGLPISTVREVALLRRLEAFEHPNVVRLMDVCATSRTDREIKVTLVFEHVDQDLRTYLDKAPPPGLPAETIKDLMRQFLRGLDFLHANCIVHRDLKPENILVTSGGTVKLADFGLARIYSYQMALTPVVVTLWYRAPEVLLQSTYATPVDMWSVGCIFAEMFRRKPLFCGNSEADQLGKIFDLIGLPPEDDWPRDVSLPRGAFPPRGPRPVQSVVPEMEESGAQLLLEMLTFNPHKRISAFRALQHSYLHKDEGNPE
Sequence of CDK4 (P24385 whole entry partner): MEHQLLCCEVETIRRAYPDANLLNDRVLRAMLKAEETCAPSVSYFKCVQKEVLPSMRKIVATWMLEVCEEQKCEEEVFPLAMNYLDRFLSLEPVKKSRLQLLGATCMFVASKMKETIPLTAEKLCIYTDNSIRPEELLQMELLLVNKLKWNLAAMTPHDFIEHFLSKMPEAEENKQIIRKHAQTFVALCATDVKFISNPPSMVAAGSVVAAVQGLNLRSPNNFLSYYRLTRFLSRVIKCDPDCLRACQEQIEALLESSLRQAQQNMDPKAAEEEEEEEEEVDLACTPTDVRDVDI
Sequence of CDK4 (Q16531 2-1140 limits assumed): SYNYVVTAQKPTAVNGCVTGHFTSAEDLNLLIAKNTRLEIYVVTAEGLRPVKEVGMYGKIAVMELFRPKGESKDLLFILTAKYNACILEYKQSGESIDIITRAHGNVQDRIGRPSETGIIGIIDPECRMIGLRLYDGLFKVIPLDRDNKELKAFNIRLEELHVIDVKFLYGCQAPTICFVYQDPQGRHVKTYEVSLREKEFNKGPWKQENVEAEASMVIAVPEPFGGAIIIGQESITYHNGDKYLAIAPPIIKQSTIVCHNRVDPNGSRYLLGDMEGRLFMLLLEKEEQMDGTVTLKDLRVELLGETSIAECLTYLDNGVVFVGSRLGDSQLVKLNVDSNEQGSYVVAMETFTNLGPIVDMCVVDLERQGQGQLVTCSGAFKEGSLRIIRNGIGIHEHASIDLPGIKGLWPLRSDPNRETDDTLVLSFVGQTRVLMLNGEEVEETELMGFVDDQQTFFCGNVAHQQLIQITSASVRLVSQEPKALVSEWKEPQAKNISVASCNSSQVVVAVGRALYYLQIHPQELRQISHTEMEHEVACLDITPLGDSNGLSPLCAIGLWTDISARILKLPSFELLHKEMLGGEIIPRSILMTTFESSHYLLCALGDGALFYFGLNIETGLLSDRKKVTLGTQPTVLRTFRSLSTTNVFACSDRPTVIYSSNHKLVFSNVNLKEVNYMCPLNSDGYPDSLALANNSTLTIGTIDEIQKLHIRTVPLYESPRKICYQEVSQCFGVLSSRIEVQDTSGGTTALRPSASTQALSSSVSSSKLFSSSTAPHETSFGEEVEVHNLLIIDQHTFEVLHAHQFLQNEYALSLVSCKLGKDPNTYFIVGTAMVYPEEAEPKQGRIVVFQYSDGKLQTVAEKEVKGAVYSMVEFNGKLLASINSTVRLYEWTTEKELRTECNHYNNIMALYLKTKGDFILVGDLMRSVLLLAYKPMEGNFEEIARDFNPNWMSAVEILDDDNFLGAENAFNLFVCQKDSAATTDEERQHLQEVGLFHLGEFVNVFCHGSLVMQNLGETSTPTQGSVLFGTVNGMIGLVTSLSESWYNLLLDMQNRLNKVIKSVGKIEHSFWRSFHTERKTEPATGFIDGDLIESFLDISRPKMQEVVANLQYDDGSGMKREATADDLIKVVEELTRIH
How it was run: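 Percentage degradation of Cyclin D1 and CDK4 derived from densitometry of ECL Western blots on lysates of Calu-1 cells. Treatment was 16 h with compound at either 40 nM or 200 nM.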

- fold decrease in DC50 (degradation potency) compared with CPD-10 [1]: > 100 -fold
- IC50 ([2]; Homo sapiens, 72 h, Calu-1 cells, 3 days, 10-point serial dilution, read-out: GI IC50 in Calu-1): ≥ 50 nM
- IC50 ([3]; Homo sapiens, 144 h, T47D cells, 6 days, 10-point serial dilution, read-out: GI IC50 in T47D): ≥ 100 nM
- IC50 ([4]; Homo sapiens, MCF7, MCF7 cells, 3-6 days, 10-point serial dilution, read-out: GI IC50 in MCF-7): > 100 nM
- inhibition at 0.04 µM ([12]; 40 nM): < 30%
- inhibition at 0.2 µM ([12]; 200 nM): 50 to 80%
SMILES: CNc1ccc(C(=O)Nc2ccc(N(C)C)nn2)c(NCCCCCCCNC(=O)CN2CCN(c3ccc(N(C)c4ncc5c(C)c(C(C)=O)c(=O)n(C6CCCC6)c5n4)nc3)CC2)n1 [CPD-143, 2-((7-(2-(4-(6-((6-acetyl-8-cyclopentyl-5-methyl-7-oxo-7,8-dihydropyrido[2,3-d]pyrimidin-2-yl)(methyl)amino)pyridin-3-yl)piperazin-1-yl)acetamido)heptyl)amino)-N-(6-(dimethylamino)pyridazin-3-yl)-6-(methylamino)nicotinamide]
- fold decrease in cellular anti-proliferation activity compared with CPD-10 ([2]; Calu-1, negative control vs CPD-10, FIG. 2B): > 50 -fold
- fold decrease in cellular anti-proliferation activity compared with CPD-10 ([3]; T47D, negative control vs CPD-10, FIG. 2B): > 50 -fold
- fold decrease in cellular anti-proliferation activity compared with CPD-10 ([4]; MCF7, negative control vs CPD-10, FIG. 2B): > 15 -fold
- Annexin V+ population [5]: 11.8%
- cell viability / anti-proliferation activity [6]: much weaker cellular anti-proliferation activities
- cell viability / anti-proliferation activity [7]: much weaker cellular anti-proliferation activities
- cell viability / anti-proliferation activity [8]: much weaker cellular anti-proliferation activities
- degradation potency [9]: much weaker degradation potencies
- downstream inhibition potency [10]: much weaker degradation potencies and downstream inhibition potencies
- cell apoptosis [11]: much less effect on cell apoptosis
